Measured values published in patent publication US20260014278A1, “HYBRID PEPTIDE DENDRIMER SYSTEMS AND EXTRAHEPATIC DELIVERY” (NUNTIUS THERAPEUTICS LIMITED, priority 2022, published 2026).

Assays:
mouse macrophages = assay: eGFP mRNA transfection of mouse macrophages with or without mannose-dendrimer coat; type: cell-based; conditions: GSCG1,2-RHL nanoparticle NP=8:1, DOTMA/DOPE:mRNA w/w 10:1, coat 1:1 (1 eq) coating:mRNA; FIG. 6
Protocol: J774.2 cells were subcultured in DMEM supplemented with 2 mM glutamax and 10% heat-inactivated FBS (complete media). Twice a week (at about 70-80% confluency; every 3-4 days), cells were scrapped and collected into Falcon tubes, and pelleted at 400 g for 5 minutes. The cells were resuspended in complete media, counted and seeded into 10 cm dishes at a density of 1.7-2.5E+4 cells/cm^2. For M2 polarisation, the cells were treated with complete media supplemented with 20 ng/ml recombinant murine IL-4 and 20 ng/ml recombinant murine IL-13 (activation media) over a 48 hr period. After 24 hrs in IL-4 and IL-13 containing medium, the cells scrapped and collected as described above. The cells were seeded into 24-well plates at a density of 1.2E+5 cells/well in 0.5mls/well complete media containing 20 ng/ml IL-4 and IL-13.
The media overlaying the polarised J774.2 cells was aspirated and exchanged with 480 ul/well activation media. 120 ul/well of each test condition (total volume was 600 ul/well) was added (test conditions were prepared in 25 mM HEPES solution). Control conditions were prepared consisting of neat 25 mM HEPES and an mRNA control. Between addition of each test condition the plate was shaken back and forth to ensure mixing. The plate was placed into the incubator overnight.
Staining and fixation for both human and mouse-derived macrophages was carried out as follows. After 24 hrs the media overlaying each test condition was transferred to corresponding 1.5 ml Eppendorf tubes (in order to conserve cells that may have died during transfection). Cells were then washed with 300 ul/well PBS which was transferred to the corresponding tubes. 500 ul/well 5 mM EDTA was added to each well and the plate(s) transferred to the 37° C. incubator for 5-10 minutes until the cells started to detach. Cells were then transferred from the plate to the corresponding 1.5 ml tubes. Cells were pelleted down at 300 g for 5 minutes and resuspended in 100 ul/sample fixable Live/Dead Aqua stain. ArC beads were stained with 3 ul neat Live/Dead Aqua for compensation. These cells were stained on ice for 30 minutes. Following this, the tubes were spun down at 300 g for 5 minutes. The supernatant was discarded, and the cells were resuspended in 500 ul/sample PBS. Negative ArC beads were added to the compensation control. GFP compensation beads were dispensed into separate tube as the GFP compensation control. The samples were spun down at 300 g for 5 minutes. Samples were then resuspended in 100 ul/sample of Reagent A from the Invitrogen Fix/Perm kit and left at room temperature for 15 minutes. The samples were spun down at 400 g for 5 minutes and the supernatant was disposed. The samples were once again washed with PBS and spun down at 300 g for 5 minutes. The cells were finally resuspended in 400 ul/sample FACS buffer (PBS+2 mM EDTA+0.5% w/v BSA) for flow analysis. Samples were stored in the fridge prior to flow analysis and run within 24 hrs of fixation.
12 μl of a nanoparticle formulation was aliquoted into a sterile 0.5 ml polypropylene tube. 4 μl of a 0.3 mg/ml, 0.6 mg/ml or 1.8 mg/ml solution of (Ac-EEEE)2[…][(S-S)-α-D-Thiomannose] (for a mRNA:coating mass ratio of 1:0.5, 1:1 or 1:3, respectively) was mixed by rapidly pipetting up and down 10-15 times, and allowed to incubate for 5 minutes.
Macrophages, and in particular M2-phenotype macrophages, are known to have enriched surface expression of the receptor CD206, the ligand for which is mannose.

myeloid cells in tumour = assay: In vivo uptake of Alexafluor488 tagged mRNA by cells in tumour of MC38 bearing mice; design: species or system C57Bl/6 mice; conditions: GSCG1,2-RL, 3-LR N:P=0.16:1, DOTMA:DOPE 10:1, coat 3 eq; 2.25 mg/kg IV, 4 hours; FIG. 39
Excerpt: Compensation was adjusted using the Attune compensation beads.

lung cells = conditions: GSCG1,2-RL, 3-LR N:P=0.16:1, DOTMA:DOPE 10:1, coat 3 eq; 2.25 mg/kg IV, 4 hours; FIG. 13
Protocol: Six week old, female C57Bl/6 mice were supplied from Envigo UK. The mice were acclimatized in the animal facility for at least 7 days prior to use. […] The mice were randomised into 4 groups of n=3 when the tumours reached 0.15 cm3 (calliper measurements) and were dosed IV at 2.25 mg/kg or 3 mg/kg.
Four hours post dosing of the formulations, the animals were culled, and tissues were harvested. Terminal blood was collected in EDTA tubes and treated with Red Blood Cell Lysing Buffer HYBRI-MAX (Merck) prior to antibody staining. Spleens were dissociated by pushing through a 70 uM cell strainer using a syringe plunge. The cell suspension was then treated with Red Blood Cell Lysing Buffer HYBRI-MAX (Merck) prior to antibody staining. Lung and tumour samples were cut into small pieces and were enzymatically digested using the Lung and Tumor Dissociation Kit (mouse) and the gentleMACS™ Octo Dissociator with Heaters (Miltenyi) following the manufacturer's instructions.
The final cell suspensions were blocked with mouse Fc block prior to antibody staining. Cells were incubated with the antibody master mix at 4 C for 20 min and then they were fixed using 4% PFA for 30 min RT. They were analysed using the Attune NxT flow cytometer (Thermo Fisher) within 24 hours of fixing and data was analysed using the FlowJo_v10.8.1 software. Compensation was adjusted using the Attune compensation beads.

lung and spleen = assay: Luciferase mRNA expression in mouse tissues after intravenous administration (bioluminescence); type: in vivo, Balb/c mice; conditions: 6 hours, DOTMA/DOPE w/w=23:1 to mRNA, dendrimers NP=0.6:1, FIG. 11
Protocol: All animal procedures were conducted following the Animal Research Reporting of In Vivo Experiments and approved by the UK Home Office for the conduct of regulated procedures under license. For the data underlying FIG. 11, Balb/c mice aged 4 weeks were purchased from Jackon's Laboratory and left to acclimate in the new housing environment for 1-week upon their arrival. All mice were weighed and warmed for 15 min at 37 C in a heating chamber. The formulations were delivered intravenously (5 mL/kg) via the tail vein using 30 G insulin syringes (BD biosciences).
All mice were imaged 6 hours post injection. BLI was performed using an IVIS Lumina II (Perkin Elmer) imaging system. Mice were administered D-luciferin (GoldBio) at a dose of 10 uL/g. Mice were anaesthetised in a chamber with 2.5% isoflurane and then placed on a heated imaging platform while being maintained on 2.5% isoflurane. For the data underlying FIG. 11, mice were imaged 10 min post administration of D-luciferin with an exposure time set at 45 sec to ensure the signal acquired was within an effective detection range (binning medium). Bioluminescence signal was quantified by measuring photon flux (photons/s) using the Living Image software (Perkin Elmer). […] The organs were placed in the centre of imaging platform (Lumina II system) and signal was measured using the acquisition settings detailed above. […]

[1] = Dynamic light scattering: hydrodynamic size and polydispersity index (PDI) of nanoparticles; type: physicochemical; conditions: peptide dendrimer, lipid and mRNA complexes; N:P 8:1, DOTMA/DOPE w/w 10:1 to mRNA
Protocol: (§1) The hydrodynamic size was measured using the dynamic light scattering (DLS) technique. DLS is a very sensitive, non-invasive method to measure size and size distribution of nanoparticles in a liquid. […] Analysing these intensity fluctuations allows us to calculate the velocity of the Brownian motion. The size of the nanoparticles can be determined by using the Stokes-Einstein relationship. With the latest technology, it can measure nanoparticles smaller than 1 nm.
PDI is used to estimate the average uniformity of a particle solution, The method of cumulants is a standard technique for analysing DLS data on sample polydispersity. PDI is a number calculated from a 2 parameter fit to the correlation data (the cumulants analysis). The cumulants analysis is used to evaluate the autocorrelation function generated by a DLS experiment. The calculation is defined in ISO 13321 and ISO 22412. PDI values greater than 0.7 indicate that the sample has a very broad size distribution and is not suitable for the DLS technique. The calculations for these parameters are defined in the ISO standard document 13321:1996 E and ISO 22412:2008.
as §1, with “Size, zeta potential and polydispersity index (PDI) measurement: The hydrodynamic” for “The hydrodynamic”, “scattering (DLS) technique using the Zetasizer Advance Series—Pro (Malvern Panalytical Ltd, Malvern, UK) according to the manufacturer's instructions. DLS is” for “scattering (DLS) technique. DLS is”
The data obtained with DLS measurements can also be used to calculate the PDI of particle in solution. PDI is used to estimate the average uniformity of a particle solution. The method of cumulants is a standard technique for analysing DLS data on sample polydispersity. PDI is a number calculated from a 2 parameter fit to the correlation data (the cumulants analysis). The cumulants analysis is used to evaluate the autocorrelation function generated by a DLS experiment. The calculation is defined in ISO 13321 and ISO 22412. PDI values greater than 0.7 indicate that the sample has a very broad size distribution and is not suitable for the DLS technique. The calculations for these parameters are defined in the ISO standard document 13321:1996 E and ISO 22412:2008.
To measure the size and PDI, the samples were diluted 16× in 25 mM HEPES buffer (5 μl sample+75 μl buffer). Parameters: reference material: polystyrene latex, dispersant: water, 25° C. The PDI measurements were measured in nanoparticles comprising a dendrimer:nucleic acid NP ratio of 8:1.

Row | delivery of luciferase mRNA cargo to lung and spleen (bioluminescence) (lung and spleen) | Polydispersity Index (PDI) [1] | Substance | increase of transfection efficiency compared to a non-coated nanoparticle (mouse macrophages) [%] | uptake by CD206+ M2 macrophage cells in tumour versus non-coated nanocarrier and LPX-mRNA (myeloid cells in tumour) | uptake by CD206+ cells in the lung versus non-coated nanocarrier and LPX-mRNA (lung cells) | uptake in the lung cells versus non-coated nanocarrier and LPX-mRNA (lung cells)
1 |  |  | (Ac-EEEE)2KGSGGSGGSC[(S-S)-α-D-Thiomannose] [Mannose-G1-EEEE] | ~10 | more effectively | more effectively | higher uptake in the lung cells
2 | further improved | 0.581 | (LRLR)2KGSC-NH2 [GSCG1-LRLR] |  |  |  | 
